Experimental data: patent publication US7863415B2 (The Regents of the University of California, priority 2004, dated 2011)
pIC50: −log10 of the molar value. Entries after “also recorded” stand apart in the source; their conditions may differ. Like-named read-outs stand apart in the source and are kept apart here.

Experiments:
[1] = tested on: U87 glioma cells; assay: Glioma cell proliferation, manual cell counts with trypan blue; format: cell-based, human; conditions: glioma cells
Procedure: C(5)-amiloride glycine conjugate (C5am-Gly) inhibits NHE1 in U87 glioma cells and is antiproliferative. […] The inhibitory activity of C5am-Gly against NCX was tested and a systematic log dose screen of C5am-Gly against a panel of glioma cells and primary astrocytes was performed.
Manual cell counts with dye exclusion assays. Identical concentrations of glioma cells can be plated on 60 mm dishes and grown until 50% confluent. Following drug treatments, media containing floating cells can be collected in suspension. Adherent cells can be rinsed in calcium- and magnesium-free phosphate-buffered saline (PBS-CMF) and removed by incubation with 0.25% v/v trypsin for 5 minutes (37° C.). Cell suspensions can be combined with the floating fraction and centrifuged at 350×g for 5 minutes. The resulting pellet (one per dish) can be resuspended in equal volumes of PBS-CMF with 0.4% trypan blue and/or 500 nM Sytox Green. 10 μL aliquots of the suspension can be plated on a hemocytometer, and cells can be counted 5 minutes after staining. Simultaneous staining of cells with trypan (TB) and Sytox Green (SG) can be visualized by switching between visible light and fluorescein green.

[2] = tested on: astrocytes; format: cell-based; conditions: amiloride ≧500 μM, 48-72 hours
Description: Cell culture. The five human glioma cell lines can be obtained from the American Tissue Culture Collection (ATCC). Primary cultures of rat astrocytes can be isolated from the cerebral cortex of neonatal rats (0-1 day old). For measurements of [H^+]i, [Ca^2+]i, and [Na^+]i, cells can be grown on glass coverslips coated with rat tail collagen type I.

[3] = tested on: intracerebral U87 glioma xenografts; assay: Intracerebral U87 glioma xenografts in athymic rats, amiloride infusion by Alzet pump, tumor volume by NMR and histology; format: in vivo, rat; conditions: for Doubling time, day postimplant 10: before drug infusion (day 12-17); for Doubling time, day postimplant 12 / Doubling time, day postimplant 15 / Doubling time, day postimplant 17: drug infusion day 12-17
Procedure: U87 glioma cells were stereotaxically implanted into the corpus striatum of brains of athymic (i.e., T-cell deficient) rats and characterized as an in vivo treatment model. Nissl-stained coronal sections were used to calculate tumor volumes from day 4 to day 28 post-implantation. T1-weighted NMR images were acquired from a separate set of animals to serially measure tumor volumes of intracerebral U87 glioma xenografts.
BrdU was injected intraperitoneally 3 h prior to perfusion fixation with paraformaldehyde in deeply anesthetized animals.

[4] = tested on: U87 cells; assay: Intracellular translocation into U87 cells by fluorescence microscopy; conditions: 50 μM; 90 and 180 min; 380 nm excitation, 510 nm emission
Description: Fluorescence Microscopy. […] Excitation light was provided by a xenon arc lamp coupled to the Polychrome IV scanning monochromator (Till Photonics; Grafelfing, Germany) that alternately excites with different wavelengths. Excitation light was delivered by fiber optics to cells through the epifluorescence port of a Nikon E600 microscope coupled to a Nikon Fluor 60× water immersion lens. The detector was an Orca II-ER CCD digital camera (Hamamatsu USA; Bridgewater, N.J.), which is controlled by C-Imaging Simple PCI software (Compix; Cranberry Township, Pa.).
Intracellular emission intensities were collected in regions of interest (ROI) from an average of 4-8 cells/field using Simple PCI imaging software. […] Images were captured as TIFF files (C-imaging Simple PCI software), and light and fluorescent images of the same field were imported in Photoshop 6.0 and vector graphics added using Illustrator 9.0.1 (Adobe; San Jose, Calif.).

[5] = tested on: U87 glioma cells
[6] = molecular target: T1, NHE1 (Rattus norvegicus, UniProt P26431); conditions: read-out: IC50 of amiloride (NHE); primary rat astrocytes; cited from earlier work
T1 construct: in primary rat astrocytes (6 μM) (McLean et al., supra); host or cells: primary rat astrocytes

[7] = tested on: NCX; conditions: read-out: IC50 for NCX inhibition; cited from earlier work
[8] = tested on: NHE1 and NCX; conditions: NHE1 and NCX inhibitors from the literature; cited from earlier work
[9] = tested on: U87 glioma cells; assay: Glioma cell death, manual cell counts with trypan blue exclusion
[10] = Neuropathological and neurobehavioral effects of intracerebral/intrathecal amiloride infusion in rats
Procedure: Rats were subjected to a “probe” trial following the last acquisition trial in MWM assessment following tumor and drug administration. The hidden platform was removed and the rat was allowed to swim for 60 seconds. The duration of time spent in the “target” quadrant (formerly containing the platform) was recorded.

[11] = molecular target: T2, NHE1 (Homo sapiens, UniProt P19634); assay: NHE1 inhibition: sodium-dependent pHi recovery in BCECF-loaded U87 glial cells after ammonium chloride pre-pulse; format: cell-based; design: Sodium-dependent proton extrusion in U87 glial cells and in primary astrocytes is mediated by the type 1 sodium proton exchanger (NHE1); endogenous in cells; host or cells: U87 human glioma cells
Procedure: Intracellular pH Measurements. U87 glial cells were grown on glass coverslips and incubated for 30 minutes at 37° C. with the pH-sensitive dye, 2′,7′-bis(2-carboxyethyl)-5(6)-carboxyfluorescein-AM (BCECF-AM; Molecular Probes, OR). Cells were rinsed with HEPES Ringer buffer twice and maintained at 37° C. for an additional 15 minutes to permit intracellular hydrolysis of the AM ester; trapping BCECF within the cells. Cells on coverslips were placed in a Hitachi F2000 fluorescent spectrophotometer and excited at 440 and 507 nm with fluorescent emissions recorded at 535 nm (Hegde et al., J. Pharmacol. Exp. Ther., 310:67-74 (2004)).
NHE inhibition by compounds 3a and 3c was evaluated using intracellular pH (pHi) measurements in the U87 human glial cell line (Hegde et al., supra). Cells loaded with BCECF were then acidified using the ammonium chloride pre-pulse method (Roos et al., Physiol Rev, 61:296-434 (1981)). The subsequent sodium-dependent recovery of pHi by these cells in the absence of bicarbonate was monitored using a spectrofluorometer. Sodium-dependent proton extrusion in U87 glial cells and in primary astrocytes is mediated by the type 1 sodium proton exchanger (NHE1) (McLean et al., supra; Hegde et al., supra) and was monitored in the presence or absence of compound 3a or 3c.
IC50 drug determinations for NHE1. This method utilizes spectrofluorometric measurements of [H^+]i as described above. The ammonium chloride prepulse method can be used to acidify cells in the presence of HR that is sodium-substituted with NMDG. Perfusion of the acidified cells with HR that contains sodium causes activation of NHE1 that is inhibited in a concentration-dependent fashion as described in McLean et al., supra.

[12] = tested on: U87 glioma cells; conditions: Hegde et al. 2004; cited from earlier work
[13] = molecular target: T2, NHE1; design: host or cells: CHO cell lines; conditions: CHO cell lines, published values; read-out: IC50 of cariporide (NHE); cited from earlier work
[14] = tested on: U87; conditions: cited from earlier work
[15] = tested on: T98G; conditions: cited from earlier work
[16] = tested on: U373; conditions: cited from earlier work
[17] = tested on: U87; conditions: cited from earlier work; remark: listed apart in the source
[18] = tested on: T98G; conditions: cited from earlier work; remark: listed apart in the source
[19] = tested on: A172; conditions: cited from earlier work
[20] = intracerebral amiloride infusion
[21] = intrathecal infusion, tumor-implanted rats

T2 sequence (P19634 whole entry): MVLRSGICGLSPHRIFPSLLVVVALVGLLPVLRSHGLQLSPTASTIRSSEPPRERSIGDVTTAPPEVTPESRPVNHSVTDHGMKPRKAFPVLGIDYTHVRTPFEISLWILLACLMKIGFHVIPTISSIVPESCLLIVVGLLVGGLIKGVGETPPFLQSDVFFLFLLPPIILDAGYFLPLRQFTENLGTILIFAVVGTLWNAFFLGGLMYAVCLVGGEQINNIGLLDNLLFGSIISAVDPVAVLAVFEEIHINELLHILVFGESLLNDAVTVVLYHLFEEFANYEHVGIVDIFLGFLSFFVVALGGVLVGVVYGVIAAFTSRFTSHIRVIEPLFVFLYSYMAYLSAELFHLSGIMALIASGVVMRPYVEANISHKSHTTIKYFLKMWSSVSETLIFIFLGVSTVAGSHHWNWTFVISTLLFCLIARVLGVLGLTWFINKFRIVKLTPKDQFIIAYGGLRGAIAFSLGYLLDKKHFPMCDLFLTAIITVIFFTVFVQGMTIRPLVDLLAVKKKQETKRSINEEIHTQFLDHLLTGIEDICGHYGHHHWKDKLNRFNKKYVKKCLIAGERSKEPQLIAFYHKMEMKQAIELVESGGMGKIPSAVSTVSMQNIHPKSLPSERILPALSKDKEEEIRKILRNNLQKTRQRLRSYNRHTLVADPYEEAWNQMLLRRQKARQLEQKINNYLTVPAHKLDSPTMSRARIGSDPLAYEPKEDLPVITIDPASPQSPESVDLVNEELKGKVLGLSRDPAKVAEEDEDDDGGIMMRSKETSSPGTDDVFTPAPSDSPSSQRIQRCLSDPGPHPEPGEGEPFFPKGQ
T1 sequence (P26431 whole entry): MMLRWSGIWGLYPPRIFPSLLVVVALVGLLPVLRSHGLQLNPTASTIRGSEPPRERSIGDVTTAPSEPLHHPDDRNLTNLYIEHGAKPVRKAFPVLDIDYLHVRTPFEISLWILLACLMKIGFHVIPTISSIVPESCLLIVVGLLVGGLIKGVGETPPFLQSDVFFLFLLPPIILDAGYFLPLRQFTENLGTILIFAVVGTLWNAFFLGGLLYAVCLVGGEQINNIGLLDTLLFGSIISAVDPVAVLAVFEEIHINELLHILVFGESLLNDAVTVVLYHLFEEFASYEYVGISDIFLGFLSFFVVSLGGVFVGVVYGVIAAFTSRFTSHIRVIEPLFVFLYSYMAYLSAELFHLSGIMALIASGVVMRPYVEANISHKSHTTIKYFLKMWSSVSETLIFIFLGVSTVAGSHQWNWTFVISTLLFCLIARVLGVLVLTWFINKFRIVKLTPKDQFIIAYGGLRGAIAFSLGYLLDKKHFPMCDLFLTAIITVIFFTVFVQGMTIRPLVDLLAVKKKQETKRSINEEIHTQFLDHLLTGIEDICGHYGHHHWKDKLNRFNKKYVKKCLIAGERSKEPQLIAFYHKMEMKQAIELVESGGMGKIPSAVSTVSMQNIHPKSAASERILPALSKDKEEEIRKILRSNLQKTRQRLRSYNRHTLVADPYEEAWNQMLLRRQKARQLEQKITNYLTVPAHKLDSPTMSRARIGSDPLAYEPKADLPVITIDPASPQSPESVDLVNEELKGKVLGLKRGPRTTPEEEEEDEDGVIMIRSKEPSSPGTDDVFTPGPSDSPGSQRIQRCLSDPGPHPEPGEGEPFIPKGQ

## NC(N)=NC(=O)c1nc(Cl)c(N)nc1N [Amiloride, 3,5-diamino-6-chloro-N-(diaminomethylene)pyrazinecarboxamide]
[1]
  Glioma Effect: antiproliferative concentration: < 50 µM
[2]
  Killing of astrocytes: not astrocytes
[3]; 10 mM amiloride reservoir
  Doubling time, day postimplant 10: 3.07
  Doubling time, day postimplant 12: 3.40
  Doubling time, day postimplant 15: 3.99
  Doubling time, day postimplant 17: 4.44
[3]; 10 mM reservoir, 28 pmol/24 h, 0.14 nmol
  Effect on tumor growth rate: did not affect
[3]; 100 mM amiloride reservoir
  Doubling time, day postimplant 10: 1.23
  Doubling time, day postimplant 12: 1.98
  Doubling time, day postimplant 15: 4.58+
  Doubling time, day postimplant 17: 11.65++
[3]; 100 mM reservoir, 276 pmol/24 h for 5 days, 1.4 nmol total
  Increase of tumor doubling time compared to vehicle-treated animals: 3 fold
[3]; [20]
  Effect on normal brain cell types (histology): unaffected
  Glioma cell death in poorly vascularized tumor regions (eosin staining): necrotic glioma cell death
[3]; intracerebral infusion at relatively high doses vs vehicle
  Effect on tumor growth rates: significantly slowed
[4]
  Intracellular accumulation in U87 cells: intracellular accumulation; also recorded: rapid cell permeation
[5]
  Glioma Effect: cytotoxic concentration: ≥ 500 µM
[6]
  pIC50: 5.22
[7]
  pIC50: 3.30
[8]
  Rel. Activity: NHE > NCX
[9]; U87 glioma cells, C2am-Gly within 24 h
  Concentration that killed U87 glioma cells: 500 µM
[9]; glioma cells, amiloride within 48-72 hours
  Concentration that killed glioma cells: ≥ 500 µM
[10]; Sprague-Dawley rats, 276 pmol/24 h intracerebral, 12 days
  Neuropathological changes in normal brain cell types: not observed; also recorded: no demonstrable neuropathology
[10]; [21]
  Balance and fine motor coordination (beam walk): did not affect
  Memory in a spatial learning task (probe trial): did not affect
[11]; U87 cells
  Reversal of NHE1 inhibition after removal of compound: slow and incomplete recovery; also recorded: prolonged and an incomplete recovery

## CC(C)c1ccc(C(=O)NC(=N)N)cc1S(C)(=O)=O [Cariporide]
[5]
  Cytotoxicity to glioma cells: cytotoxic
[12]
  Killing of glioma cells by selective NHE inhibitor: do not kill glioma cells
[13]
  pIC50: 7.52
[11]; NHE inhibition relative to amiloride = 1
  Relative Potency: 676
[11]; U87 glial cells, read-out: IC50 of cariporide (NHE inhibition)
  pIC50: 7.13

## Cn1nnc2c(C(N)=O)ncn2c1=O [Temozolamide]
[14]
  Temozolamide sensitivity: yes
[15]
  Temozolamide sensitivity: no
[16]
  Temozolamide sensitivity: yes

## CN[C@@H]1C[C@H]2O[C@@](C)([C@@H]1OC)n1c3ccccc3c3c4c(c5c6ccccc6n2c5c31)C(=O)NC4 [staurosporine]
[17]
  G1 arrest with staurosporine: yes
[18]
  G1 arrest with staurosporine: yes
[19]
  G1 arrest with staurosporine: yes
